# Assay results from patent US20250099634A1, “METHOD OF TREATING CANCER” (Novartis AG, priority 2023, published 2025).
# Legend:
# [1] = test system: Grade 2 and Grade 3 advanced GEP-NET; assay: NETTER-2 best overall response, ORR and DCR, central review using RECIST 1.1; type: in vivo, human; conditions: for ORR: central assessment
# Text: Objective Response Rate (ORR) will be calculated as the rate of patients with a best overall response of partial response (PR) or complete response (CR). Response duration will be calculated from the time of initial response until documented tumor progression. The Duration of Response (DOR) is defined as the time from initially meeting the criteria for response (CR or PR) until the time of progression by RECIST or death due to underlying disease. DOR will be reported descriptively for each group without comparison between groups.
# Overall response rate (ORR) is defined as the proportion of subjects with best overall response (BOR) of complete response (CR) or partial response (PR), as per central review and according to RECIST 1.1.
# ORR will be calculated based on the FAS and according to the ITT principle. ORR and its 95% confidence interval will be presented by treatment group. The Cochran-Mantel-Haenszel chi-square test, stratified by the randomization stratification factors, will be used to compare ORR between the two treatment groups, at the 1-sided 2.5% level of significance. As a supportive analysis, ORR as per local review will be presented by treatment group, along with 95% confidence intervals.
# More precisely, it counts the presence of at least one confirmed CR or confirmed PR or SD. The DCR will be calculated based on FAS according to the ITT principle. DCR and its 95% confidence interval will be presented by treatment group. The Cochrane-Mantel-Haenszel chi-square test, stratified by the randomization stratification factors, will be used to compare DCR between the two treatment groups, at the one-sided 2.5% level of significance. The p-value to be generated using the Cochrane-Mantel-Haenszel chi-square test is considered nominal, and not to be considered confirmatory as it is not part of the testing strategy. The SAP will advise on how to proceed in case of few events in any stratum.
# [2] = NETTER-2 subject disposition: discontinuation of randomized treatment phase (Full Analysis Set); type: in vivo, human
# Text: The discontinuation of either study treatments in both arms (Lutathera or octreotide long-acting) is not a reason for patient's withdrawal either from the clinical/tumor assessments until tumor progression, or for early study termination. However, in case of a patient's withdrawal from the clinical/tumor assessments or early study termination (based on either the patient's or the Investigator's decision), patients will undergo all exams scheduled for the End of Treatment (EOT) visit.
# The Full Analysis Set (FAS) comprises all subjects to whom study treatment has been assigned by randomization. According to the intent to treat principle, subjects will be analyzed according to the treatment and strata they have been assigned to during the randomization procedure.
# midgut carcinoid tumors = conditions: cited from earlier work
# [3] = NETTER-2 serious adverse events in the randomized treatment period (Safety Set)
# Text: All adverse events (AEs), whether or not spontaneously reported by the patient, will be recorded starting from the signing of the ICF until the end of the Treatment Phase. Safety summaries (tables, figures) include only data from the on-treatment period with the exception of baseline data which will also be summarized where appropriate (e.g. change from baseline summaries). In addition, a separate summary for death including on treatment and post treatment deaths will be provided. In particular, summary tables for adverse events (AEs) will summarize only on-treatment events, with a start date during the on-treatment period (treatment-emergent AEs).
# Separate summaries will be provided for study medication related adverse events, death, serious adverse events, other significant adverse events leading to discontinuation and adverse events leading to dose adjustment.
# [4] = central review, Full Analysis Set
# [5] = All grades, randomized treatment period, Safety Set
# [6] = Grade >=3, randomized treatment period, Safety Set
# [7] = randomized treatment period, Safety Set
smiles,measurement,setting,value
"C[C@@H](O)[C@@H]1NC(=O)[C@H](CCCCN)NC(=O)[C@@H](Cc2c[nH]c3ccccc23)NC(=O)[C@H](Cc2ccccc2)NC(=O)[C@@H](NC(=O)[C@H](N)Cc2ccccc2)CSSC[C@@H](C(=O)N[C@H](CO)[C@@H](C)O)NC1=O [Octreotide LAR, octreotide]",ORR,[1]; listed as High-dose Octreotide,9.3%
same,ORR,[1]; listed as high-dose Octreotide,"9.3% (3.8%, 18.3%) for Lutathera vs. high-dose"
same,Best Overall Response: Complete Response (CR),[1]; [4],0 n (%)
same,Best Overall Response: Non-CR/Non-PD,[1]; [4],1 (1.3) n (%)
same,Best Overall Response: Partial Response (PR),[1]; [4],7 (9.3) n (%)
same,Best Overall Response: Progressive Disease (PD),[1]; [4],14 (18.7) n (%)
same,Best Overall Response: Unknown,[1]; [4],11 (14.7) n (%)
same,Overall Response Rate (ORR: CR + PR),[1]; [4],7 (9.3) n (%)
same,Reason for End of Randomized Treatment Phase: Adverse Event,[2]; Full Analysis Set,1 (1.3) n (%)
same,Reason for End of Randomized Treatment Phase: Death,[2]; Full Analysis Set,4 (5.3) n (%)
same,Reason for End of Randomized Treatment Phase: Progressive Disease,[2]; Full Analysis Set,44 (58.7) n (%)
same,Treatment discontinuation due to adverse event,[2]; randomized period,1.3%
same,discontinuation for progressive disease,[2]; randomized period,58.7%
same,confirmed events (disease progressions RECIST 1.1 centrally assessed or deaths),midgut carcinoid tumors; NETTER-1,70
same,median PFS,midgut carcinoid tumors; NETTER-1,8.5 months
same,median time free from relapse,"midgut carcinoid tumors; NETTER-1 control arm, high dose (60 mg)",8.4 months
same,Fatal SAEs,[3]; [5],2 (2.7) n (%)
same,Fatal SAEs Related to Any Treatment,[3]; [5],0 n (%)
same,Fatal SAEs Related to Octreotide,[3]; [5],0 n (%)
same,SAEs Related to Any Treatment,[3]; [5],1 (1.4) n (%)
same,SAEs Related to Octreotide,[3]; [5],1 (1.4) n (%)
same,Serious adverse event: Abdominal pain,[3]; [5],0 n (%)
same,Serious adverse event: Abdominal sepsis,[3]; [5],1 (1.4) n (%)
same,Serious adverse event: Acute coronary syndrome,[3]; [5],1 (1.4) n (%)
same,Serious adverse event: Acute kidney injury,[3]; [5],1 (1.4) n (%)
same,Serious adverse event: Anaemia,[3]; [5],1 (1.4) n (%)
same,Serious adverse event: Ascites,[3]; [5],1 (1.4) n (%)
same,Serious adverse event: Blood bilirubin increased,[3]; [5],1 (1.4) n (%)
same,Serious adverse event: Carcinoid heart disease,[3]; [5],1 (1.4) n (%)
same,Serious adverse event: Carcinoid syndrome,[3]; [5],1 (1.4) n (%)
same,Serious adverse event: Diarrhoea,[3]; [5],1 (1.4) n (%)
same,Serious adverse event: Femur fracture,[3]; [5],1 (1.4) n (%)
same,Serious adverse event: Gastroenteritis,[3]; [5],1 (1.4) n (%)
same,Serious adverse event: Gastrointestinal stoma complication,[3]; [5],0 n (%)
same,Serious adverse event: Generalised oedema,[3]; [5],1 (1.4) n (%)
same,Serious adverse event: Hip fracture,[3]; [5],1 (1.4) n (%)
same,Serious adverse event: Hyperglycaemia,[3]; [5],1 (1.4) n (%)
same,Serious adverse event: Hypertension,[3]; [5],1 (1.4) n (%)
same,Serious adverse event: Hypoalbuminaemia,[3]; [5],1 (1.4) n (%)
same,Serious adverse event: Intestinal obstruction,[3]; [5],1 (1.4) n (%)
same,Serious adverse event: Jaundice,[3]; [5],1 (1.4) n (%)
same,Serious adverse event: Lower gastrointestinal haemorrhage,[3]; [5],1 (1.4) n (%)
same,Serious adverse event: Metabolic encephalopathy,[3]; [5],1 (1.4) n (%)
same,Serious adverse event: Oedema peripheral,[3]; [5],1 (1.4) n (%)
same,Serious adverse event: Pleurisy,[3]; [5],1 (1.4) n (%)
same,Serious adverse event: Pyrexia,[3]; [5],0 n (%)
same,Serious adverse event: Small intestinal obstruction,[3]; [5],0 n (%)
same,Serious adverse event: Tumour lysis syndrome,[3]; [5],1 (1.4) n (%)
same,Fatal SAEs,[3]; [6],2 (2.7) n (%)
same,Fatal SAEs Related to Any Treatment,[3]; [6],0 n (%)
same,Fatal SAEs Related to Octreotide,[3]; [6],0 n (%)
same,SAEs Related to Any Treatment,[3]; [6],1 (1.4) n (%)
same,SAEs Related to Octreotide,[3]; [6],1 (1.4) n (%)
same,Serious adverse event: Abdominal pain,[3]; [6],0 n (%)
same,Serious adverse event: Abdominal sepsis,[3]; [6],1 (1.4) n (%)
same,Serious adverse event: Acute coronary syndrome,[3]; [6],0 n (%)
same,Serious adverse event: Acute kidney injury,[3]; [6],1 (1.4) n (%)
same,Serious adverse event: Anaemia,[3]; [6],1 (1.4) n (%)
same,Serious adverse event: Ascites,[3]; [6],1 (1.4) n (%)
same,Serious adverse event: Blood bilirubin increased,[3]; [6],1 (1.4) n (%)
same,Serious adverse event: Carcinoid heart disease,[3]; [6],1 (1.4) n (%)
same,Serious adverse event: Carcinoid syndrome,[3]; [6],1 (1.4) n (%)
same,Serious adverse event: Diarrhoea,[3]; [6],1 (1.4) n (%)
same,Serious adverse event: Femur fracture,[3]; [6],0 n (%)
same,Serious adverse event: Gastroenteritis,[3]; [6],1 (1.4) n (%)
same,Serious adverse event: Gastrointestinal stoma complication,[3]; [6],0 n (%)
same,Serious adverse event: Generalised oedema,[3]; [6],1 (1.4) n (%)
same,Serious adverse event: Hip fracture,[3]; [6],1 (1.4) n (%)
same,Serious adverse event: Hyperglycaemia,[3]; [6],1 (1.4) n (%)
same,Serious adverse event: Hypertension,[3]; [6],1 (1.4) n (%)
same,Serious adverse event: Hypoalbuminaemia,[3]; [6],1 (1.4) n (%)
same,Serious adverse event: Intestinal obstruction,[3]; [6],1 (1.4) n (%)
same,Serious adverse event: Jaundice,[3]; [6],1 (1.4) n (%)
same,Serious adverse event: Lower gastrointestinal haemorrhage,[3]; [6],1 (1.4) n (%)
same,Serious adverse event: Metabolic encephalopathy,[3]; [6],1 (1.4) n (%)
same,Serious adverse event: Oedema peripheral,[3]; [6],1 (1.4) n (%)
same,Serious adverse event: Pleurisy,[3]; [6],1 (1.4) n (%)
same,Serious adverse event: Pyrexia,[3]; [6],0 n (%)
same,Serious adverse event: Small intestinal obstruction,[3]; [6],0 n (%)
same,Serious adverse event: Tumour lysis syndrome,[3]; [6],1 (1.4) n (%)
same,Incidence of SAEs: Small intestinal obstruction,"[3]; most frequent SAE, summary table",0 (%)
same,Serious AEs,[3]; randomized treatment period,20.5%
same,"Serious AEs, Treatment-related",[3]; randomized treatment period,1.4%
same,SAE with fatal outcome: Blood bilirubin increased,[3]; [7],0 n (%)
same,SAE with fatal outcome: Diarrhoea,[3]; [7],1 (1.4) n (%)
same,SAE with fatal outcome: Dyspnoea,[3]; [7],0 n (%)
same,SAE with fatal outcome: Intestinal perforation,[3]; [7],0 n (%)
same,SAE with fatal outcome: Tumor Lysis syndrome,[3]; [7],1 (1.4) n (%)
same,SAEs with fatal outcome,[3]; [7],2 (2.7) n (%)
same,SAEs with fatal outcome reported in subjects with primary reason for death = Disease under Study,[3]; [7],2 (2.7) n (%)
